In the NIST ThermoML archive (doi:10.1021/je900311v):

Experiments:
[1] = 298.15 K; 101.33 kPa; Liquid
[2] = excess molar enthalpy (molar enthalpy of mixing); xn = mol fraction of the nth substance listed; details: 298.15 K, 101 kPa, Liquid, Calvet calorimetry

CCCCCC(=O)CC [3-octanone]
Details | mass density [kg/m3]
[1] | 817.77

CCCCCC(=O)CC [3-octanone] + CCCCCCCCCCCC
[2]
Details | excess molar enthalpy [kJ/mol]
x1 = 0.0352 | 0.171
x1 = 0.0679 | 0.314
x1 = 0.0985 | 0.428
x1 = 0.1272 | 0.526
x1 = 0.1541 | 0.607
x1 = 0.1794 | 0.677
x1 = 0.2078 | 0.745
x1 = 0.2344 | 0.803
x1 = 0.2592 | 0.849
x1 = 0.2824 | 0.888
x1 = 0.3042 | 0.92
x1 = 0.3248 | 0.946
x1 = 0.3477 | 0.969
x1 = 0.3691 | 0.988
x1 = 0.3892 | 1
x1 = 0.408 | 1.01
x1 = 0.4257 | 1.02
x1 = 0.445 | 1.02
x1 = 0.4631 | 1.03
x1 = 0.48 | 1.03
x1 = 0.4959 | 1.02
x1 = 0.5109 | 1.02
x1 = 0.525 | 1.02
x1 = 0.5383 | 1.01
x1 = 0.5524 | 1
x1 = 0.5657 | 0.993
x1 = 0.5782 | 0.984
x1 = 0.5798 | 0.977
x1 = 0.59 | 0.974
x1 = 0.5925 | 0.968
x1 = 0.6057 | 0.957
x1 = 0.6194 | 0.944
x1 = 0.632 | 0.93
x1 = 0.6451 | 0.915
x1 = 0.6588 | 0.897
x1 = 0.673 | 0.879
x1 = 0.6855 | 0.864
x1 = 0.6985 | 0.841
x1 = 0.712 | 0.819
x1 = 0.726 | 0.794
x1 = 0.7405 | 0.767
x1 = 0.7557 | 0.738
x1 = 0.7693 | 0.71
x1 = 0.7833 | 0.68
x1 = 0.798 | 0.646
x1 = 0.8133 | 0.609
x1 = 0.8289 | 0.569
x1 = 0.8453 | 0.526
x1 = 0.8592 | 0.487
x1 = 0.8735 | 0.446
x1 = 0.8883 | 0.401
x1 = 0.9036 | 0.352
x1 = 0.9194 | 0.3
x1 = 0.9358 | 0.245
x1 = 0.9511 | 0.19
x1 = 0.9668 | 0.131
x1 = 0.9831 | 0.0672

CCCCCC(=O)CC [3-octanone] + CCCCCCCCCCCCCC
[2]
Details | excess molar enthalpy [kJ/mol]
x1 = 0.0384 | 0.195
x1 = 0.074 | 0.353
x1 = 0.107 | 0.487
x1 = 0.1377 | 0.591
x1 = 0.1664 | 0.682
x1 = 0.1933 | 0.757
x1 = 0.2233 | 0.829
x1 = 0.2512 | 0.89
x1 = 0.2771 | 0.937
x1 = 0.3013 | 0.977
x1 = 0.324 | 1.01
x1 = 0.3452 | 1.03
x1 = 0.3687 | 1.05
x1 = 0.3907 | 1.07
x1 = 0.4111 | 1.09
x1 = 0.4303 | 1.1
x1 = 0.4482 | 1.1
x1 = 0.465 | 1.1
x1 = 0.4833 | 1.1
x1 = 0.5005 | 1.1
x1 = 0.5166 | 1.1
x1 = 0.5316 | 1.09
x1 = 0.5458 | 1.09
x1 = 0.5618 | 1.07
x1 = 0.5762 | 1.06
x1 = 0.5904 | 1.05
x1 = 0.6033 | 1.04
x1 = 0.6131 | 1.02
x1 = 0.6255 | 1.01
x1 = 0.6385 | 0.998
x1 = 0.6519 | 0.981
x1 = 0.666 | 0.962
x1 = 0.6781 | 0.944
x1 = 0.6906 | 0.925
x1 = 0.7037 | 0.903
x1 = 0.7172 | 0.879
x1 = 0.7313 | 0.852
x1 = 0.7459 | 0.823
x1 = 0.7586 | 0.797
x1 = 0.7716 | 0.767
x1 = 0.7852 | 0.735
x1 = 0.7992 | 0.7
x1 = 0.8138 | 0.662
x1 = 0.8288 | 0.622
x1 = 0.8419 | 0.585
x1 = 0.8555 | 0.545
x1 = 0.8694 | 0.502
x1 = 0.8838 | 0.455
x1 = 0.8988 | 0.405
x1 = 0.9142 | 0.349
x1 = 0.9552 | 0.192
x1 = 0.9696 | 0.131
x1 = 0.9846 | 0.07

CCCCCC(=O)CC [3-octanone] + CCCCCCCCCCCCCCCC
[2]
Details | excess molar enthalpy [kJ/mol]
x1 = 0.0448 | 0.229
x1 = 0.0857 | 0.413
x1 = 0.1233 | 0.561
x1 = 0.1578 | 0.683
x1 = 0.1899 | 0.783
x1 = 0.2195 | 0.866
x1 = 0.2522 | 0.949
x1 = 0.2824 | 1.02
x1 = 0.3102 | 1.07
x1 = 0.336 | 1.11
x1 = 0.3599 | 1.14
x1 = 0.3822 | 1.17
x1 = 0.4079 | 1.19
x1 = 0.4316 | 1.2
x1 = 0.4534 | 1.21
x1 = 0.4737 | 1.22
x1 = 0.4956 | 1.22
x1 = 0.5158 | 1.22
x1 = 0.5345 | 1.21
x1 = 0.5517 | 1.2
x1 = 0.5677 | 1.19
x1 = 0.5827 | 1.18
x1 = 0.5995 | 1.17
x1 = 0.615 | 1.15
x1 = 0.6293 | 1.14
x1 = 0.6426 | 1.12
x1 = 0.655 | 1.1
x1 = 0.6775 | 1.06
x1 = 0.69 | 1.04
x1 = 0.7029 | 1.02
x1 = 0.7163 | 0.993
x1 = 0.7302 | 0.965
x1 = 0.7423 | 0.94
x1 = 0.7547 | 0.914
x1 = 0.7676 | 0.884
x1 = 0.7809 | 0.852
x1 = 0.7947 | 0.817
x1 = 0.809 | 0.777
x1 = 0.8216 | 0.741
x1 = 0.8347 | 0.701
x1 = 0.8482 | 0.657
x1 = 0.8621 | 0.61
x1 = 0.8741 | 0.568
x1 = 0.8865 | 0.522
x1 = 0.8993 | 0.473
x1 = 0.9124 | 0.419
x1 = 0.9259 | 0.362
x1 = 0.9375 | 0.312
x1 = 0.9494 | 0.259
x1 = 0.9615 | 0.2
x1 = 0.974 | 0.138
x1 = 0.9868 | 0.0709

CCCCCCCCCCCC [dodecane]
Details | mass density [kg/m3]
[1] | 745.28

CCCCCCCCCCCCCCCC [hexadecane]
Details | mass density [kg/m3]
[1] | 770.31

CCCCCCCCCCCCCC [tetradecane]
Details | mass density [kg/m3]
[1] | 760.2
